Measured values as given in US6355799B1, “Substituted benzene compounds, process for their preparation, and herbicidal and defoliant compositions containing them” (ISK Americas Incorporated, priority 1997, dated 2002).

Tests used:
Format in all cases: in vivo
[1] = tested on: sicklepod (Cassia obtusifolia, CASOB); assay: Pre-emerge test, greenhouse herbicide activity screening; conditions: rated 14 days after application, 0 = no damage, 100 = complete death
In short: (§1)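 Applied at 15–1000 g ai/ha from acetone in 187 l/ha spray volume. Post-emergence applications included 0.25% v/v non-ionic surfactant and reached plants sown 8–21 days before. Pre-emergence applications were incorporated by surface watering. Efficacy or crop damage was rated on a 0–100 scale after 14 days.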

[2] = tested on: velvetleaf (Abutilon theophrasti, ABUTH); assay: as above; conditions: rated 14 days after application, 0 = no damage, 100 = complete death
In short: as §1

[3] = tested on: large crabgrass (Digitaria sanguinalis, DIGSA); assay: as above; conditions: rated 14 days after application, 0 = no damage, 100 = complete death
In short: as §1

[4] = tested on: green foxtail (Setaria viridis, SETVI); assay: as above; conditions: rated 14 days after application, 0 = no damage, 100 = complete death
In short: as §1

[5] = tested on: ivyleaf morningglory (Ipomoea hederacea, IPOHE); assay: as above; conditions: rated 14 days after application, 0 = no damage, 100 = complete death
In short: as §1

[6] = tested on: barnyardgrass (Echinochloa crus-galli, ECHCG); assay: as above; conditions: rated 14 days after application, 0 = no damage, 100 = complete death
In short: as §1

[7] = tested on: lambsquarters (Chenopodium album, CHEAL); assay: as above; conditions: rated 14 days after application, 0 = no damage, 100 = complete death
In short: as §1

[8] = tested on: johnsongrass (Sorghum halepense, SORHA); assay: as above; conditions: rated 14 days after application, 0 = no damage, 100 = complete death
In short: as §1

[9] = tested on: sicklepod (Cassia obtusifolia, CASOB); assay: Post-emerge test, greenhouse herbicide activity screening; conditions: post-emerge, 14 days after application, rating scale 0-100
In short: (§2)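 Compounds in acetone were track-sprayed at 15-1000 g ai/ha (187 l/ha) on sandy loam pots: pre-emerge one day after seeding, post-emerge at 2-3 leaf stage with 0.25% v/v non-ionic surfactant. Phytotoxicity was rated 14 days later on a 0 (no damage) to 100 (complete death) scale.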

[10] = tested on: velvetleaf (Abutilon theophrasti, ABUTH); assay: as above; conditions: post-emerge, 14 days after application, rating scale 0-100
In short: as §2

[11] = tested on: large crabgrass (Digitaria sanguinalis, DIGSA); assay: as above; conditions: post-emerge, 14 days after application, rating scale 0-100
In short: as §2

[12] = tested on: green foxtail (Setaria viridis, SETVI); assay: as above; conditions: post-emerge, 14 days after application, rating scale 0-100
In short: as §2

[13] = tested on: ivyleaf morningglory (Ipomoea hederacea, IPOHE); assay: as above; conditions: post-emerge, 14 days after application, rating scale 0-100
In short: as §2

[14] = tested on: barnyardgrass (Echinochloa crus-galli, ECHCG); assay: as above; conditions: post-emerge, 14 days after application, rating scale 0-100
In short: as §2

[15] = tested on: common ragweed (Ambrosia artemisizfolia L., AMBEL); assay: as above; conditions: post-emerge, 14 days after application, rating scale 0-100
In short: as §2

[16] = tested on: lambsquarters (Chenopodium album, CHEAL); assay: as above; conditions: post-emerge, 14 days after application, rating scale 0-100
In short: as §2

[17] = tested on: redroot pigweed (Amaranthus retroflexus, AMARE); assay: as above; conditions: post-emerge, 14 days after application, rating scale 0-100
In short: as §2

[18] = tested on: johnsongrass (Sorghum halepense, SORHA); assay: as above; conditions: post-emerge, 14 days after application, rating scale 0-100
In short: as §2

[19] = tested on: field corn (Zea mays L., var. Dekalb 535, CORN); assay: Post-emerge test, crop safety; conditions: post-emerge, 14 days after application, rating scale 0-100
In short: as §1

[20] = tested on: upland rice (Oryza sp., var. Tebonnet, RICE); assay: Post-emerge test, crop safety; conditions: post-emerge, 14 days after application, rating scale 0-100
In short: as §1

[21] = tested on: field corn (Zea mays L., var. Dekalb 535, CORN); assay: Pre-emerge test, crop safety; conditions: rated 14 days after application, 0 = no damage, 100 = complete death
In short: (§3)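 Herbicidal damage is scored 0 (none) to 100 (complete plant death) two weeks after a simulated field spray. Rates span 15–1000 g ai/ha, delivered in acetone at 187 l/ha. For post-emergence treatments, plants have 2–3 leaves and the spray carries 0.25% v/v non-ionic surfactant.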

[22] = tested on: upland rice (Oryza sp., var. Tebonnet, RICE); assay: Pre-emerge test, crop safety; conditions: rated 14 days after application, 0 = no damage, 100 = complete death
In short: as §3

[23] = tested on: redroot pigweed (Amaranthus retroflexus, AMARE); assay: Pre-emerge test, greenhouse herbicide activity screening; conditions: rated 14 days after application, 0 = no damage, 100 = complete death
In short: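 Compounds in acetone were track-sprayed at 187 l/ha, 15–1000 g ai/ha, onto sandy loam pots. Pre-emerge seeds were sown one day before spraying, with surface watering afterwards. Post-emerge plants were at the 2–3 leaf stage and sprayed with 0.25% v/v non-ionic surfactant. Injury was rated 0–100 at 14 days.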

COc1c(Cl)cc(F)c(-n2c(=O)cc(C(F)(F)F)n(C)c2=O)c1NC(=O)c1ccc2c(c1)OCO2 [2-73]
Pre-emerge Herbicidal Activity, phytotoxicity rating (0-100), CASOB ([1]; 63 g ai/ha): 100
Pre-emerge Herbicidal Activity, phytotoxicity rating (0-100), CASOB ([1]; 250 g ai/ha): 100
Pre-emerge Herbicidal Activity, phytotoxicity rating (0-100), ABUTH ([2]; 63 g ai/ha): 100
Pre-emerge Herbicidal Activity, phytotoxicity rating (0-100), ABUTH ([2]; 250 g ai/ha): 100
Pre-emerge Herbicidal Activity, phytotoxicity rating (0-100), DIGSA ([3]; 63 g ai/ha): 100
Pre-emerge Herbicidal Activity, phytotoxicity rating (0-100), DIGSA ([3]; 250 g ai/ha): 100
Pre-emerge Herbicidal Activity, phytotoxicity rating (0-100), SETVI ([4]; 63 g ai/ha): 100
Pre-emerge Herbicidal Activity, phytotoxicity rating (0-100), SETVI ([4]; 250 g ai/ha): 100
Pre-emerge Herbicidal Activity, phytotoxicity rating (0-100), IPOHE ([5]; 63 g ai/ha): 90
Pre-emerge Herbicidal Activity, phytotoxicity rating (0-100), IPOHE ([5]; 250 g ai/ha): 100
Pre-emerge Herbicidal Activity, phytotoxicity rating (0-100), ECHCG ([6]; 63 g ai/ha): 90
Pre-emerge Herbicidal Activity, phytotoxicity rating (0-100), ECHCG ([6]; 250 g ai/ha): 100
Pre-emerge Herbicidal Activity, phytotoxicity rating (0-100), CHEAL ([7]; 63 g ai/ha): 100
Pre-emerge Herbicidal Activity, phytotoxicity rating (0-100), CHEAL ([7]; 250 g ai/ha): 100
Pre-emerge Herbicidal Activity, phytotoxicity rating (0-100), SORHA ([8]; 63 g ai/ha): 75
Pre-emerge Herbicidal Activity, phytotoxicity rating (0-100), SORHA ([8]; 250 g ai/ha): 100
phytotoxicity rating CASOB ([9]; 63 g ai/ha): 60
phytotoxicity rating CASOB ([9]; 250 g ai/ha): 100
phytotoxicity rating ABUTH ([10]; 63 g ai/ha): 100
phytotoxicity rating ABUTH ([10]; 250 g ai/ha): 100
phytotoxicity rating DIGSA ([11]; 63 g ai/ha): 30
phytotoxicity rating DIGSA ([11]; 250 g ai/ha): 30
phytotoxicity rating SETVI ([12]; 63 g ai/ha): 50
phytotoxicity rating SETVI ([12]; 250 g ai/ha): 90
phytotoxicity rating IPOHE ([13]; 63 g ai/ha): 100
phytotoxicity rating IPOHE ([13]; 250 g ai/ha): 100
phytotoxicity rating ECHCG ([14]; 63 g ai/ha): 30
phytotoxicity rating ECHCG ([14]; 250 g ai/ha): 60
phytotoxicity rating AMBEL ([15]; 63 g ai/ha): 100
phytotoxicity rating AMBEL ([15]; 250 g ai/ha): 100
phytotoxicity rating CHEAL ([16]; 63 g ai/ha): 70
phytotoxicity rating CHEAL ([16]; 250 g ai/ha): 95
phytotoxicity rating AMARE ([17]; 63 g ai/ha): 100
phytotoxicity rating AMARE ([17]; 250 g ai/ha): 100
phytotoxicity rating SORHA ([18]; 63 g ai/ha): 10
phytotoxicity rating SORHA ([18]; 250 g ai/ha): 50
phytotoxicity rating CORN ([19]; 63 g ai/ha): 25
phytotoxicity rating CORN ([19]; 250 g ai/ha): 50
phytotoxicity rating RICE ([20]; 63 g ai/ha): 20
phytotoxicity rating RICE ([20]; 250 g ai/ha): 70
Pre-emerge phytotoxicity rating (0-100), crop damage, CORN ([21]; 63 g ai/ha): 50
Pre-emerge phytotoxicity rating (0-100), crop damage, CORN ([21]; 250 g ai/ha): 95
Pre-emerge phytotoxicity rating (0-100), crop damage, RICE ([22]; 63 g ai/ha): 80
Pre-emerge phytotoxicity rating (0-100), crop damage, RICE ([22]; 250 g ai/ha): 100
Pre-emerge Herbicidal Activity, phytotoxicity rating (0-100), AMARE ([23]; 63 g ai/ha): 100
Pre-emerge Herbicidal Activity, phytotoxicity rating (0-100), AMARE ([23]; 250 g ai/ha): 100
